Reference: US20160237511A1, “METHODS FOR D[…] SENSITIVITY TO VIRAL INHIBITORS” (priority 2013, published 2016)

Key:
HCV infection = details: cited from earlier work
[1] = non-primate animal species; cited from earlier work
[2] = test system: GT3 (a/unknown) chimeric replicons (patient-derived NS5B); assay: PhenoSense HCV NS5B Assay, GT3 chimeric replicons; assay type: cell-based, hepatitis C virus (HCV); details: Example 4; for susceptibility of GT3 chimeric replicons: IC50 fold change, compared to GT1 chimeric replicons
Method: (§1) RTV RNA was electroporated into a Huh7 cell line, and electroporated cells were incubated in the absence and presence of serially diluted inhibitors. RNA input was monitored by measuring the amount of luciferase activity produced in the electroporated cells at 4 hours post-electroporation. Luciferase activity is expressed as relative light units (RLU). Replication capacity (RC) was determined by evaluating luciferase activity at 72-96 hours postelectroporation in the absence of inhibitor, relative to RNA input and a control reference replicon RTV (Con1). A replication defective Con1 replicon (Con1 polymerase defective) was utilized to determine assay background (data not shown). Inhibitor susceptibility was determined by evaluating the ability of RTVs to replicate in the absence and presence of inhibitor at 72-96 hours post-electroporation. The % inhibition at each serial diluted inhibitor concentration was derived as follows:
(§2) [1−([…])]×100
(§3) Inhibitor susceptibility profiles (curves) were derived from these values, and inhibition data (e.g., IC50, the inhibitor concentration required to reduce virus replication by 50%; and IC95, the inhibitor concentration required to reduce virus replication by 95%) was extrapolated from fitted curves. Inhibition data are reported as fold-change relative to that of a reference RTV (e.g., IC50 (sample)/IC50 (reference)) processed in the same assay batch (e.g., IC50 fold-change (FC) from reference). An example of the PhenoSense® HCV NS5B Assay workflow is shown in FIG. 1, and a representative inhibitor susceptibly curve is shown in FIG. 2.
(§4) To determine the susceptibility of different genotype viruses to various inhibitors, the PhenoSense® HCV NS5B Assay was used. A panel of replicons were generated that contained patient-derived NS5B regions from GT1 (a/b), GT2 (a/b/k), GT3 (a/unknown), and GT4 (a/d/n/unknown) viruses. The various chimeric replicons were used in the phenotypic susceptibility assays described herein. […]

[3] = test system: GT2 (a/b/k) chimeric replicons (patient-derived NS5B); assay: PhenoSense HCV NS5B Assay, GT2 chimeric replicons; assay type: cell-based, hepatitis C virus (HCV); details: for susceptibility of GT2 chimeric replicons: Example 4, IC50 fold change, compared to GT1 chimeric replicons
Method: as §1, §2, §3, §4

[4] = test system: GT1 (a/b) chimeric replicons (patient-derived NS5B); assay: PhenoSense HCV NS5B Assay, GT1 chimeric replicons; assay type: cell-based, hepatitis C virus (HCV); details: GT1a/b NS5B replicons
Method: as §1, §2
(§5) Inhibitor susceptibility profiles (curves) were derived from these values, and inhibition data (e.g., IC50, the inhibitor concentration required to reduce virus replication by 50%; and IC95, the inhibitor concentration required to reduce virus replication by 95%) was extrapolated from fitted curves. […]

[5] = test system: GT4 (a/d/n/unknown) chimeric replicons (patient-derived NS5B); assay: PhenoSense HCV NS5B Assay, GT4 chimeric replicons; assay type: cell-based, hepatitis C virus (HCV); details: Example 4; IC50 fold change, compared to GT1 chimeric replicons
Method: as §1, §2, §5

[6] = test system: replicons containing patient-derived NS5B regions from GT1, GT2, GT3, and GT4 viruses; assay: PhenoSense HCV NS5B Assay, luciferase replicon panel across genotypes; assay type: cell-based, hepatitis C virus (HCV); details: for variation in susceptibility within and between genotypes: GT1-GT4 chimeric replicons, IC50/IC95 fold change
Method: Most samples were received as frozen plasma and were accompanied by information including HCV genotype and/or subtype (e.g., 1a, 1b, 2, 3, 4) and viral load. Samples were thawed and stored in frozen aliquots if necessary, and a 200 μL aliquot was processed. Virus particles were disrupted by addition of lysis buffer containing a chaotropic agent. Genomic viral RNA (vRNA) was extracted from viral lysates using oligo-nucleotide linked magnetic beads. Purified vRNA was used as a template for first-strand cDNA synthesis in a reverse transcriptase (RT) reaction. The resulting cDNA was used as the template for the first round of a nested polymerase chain reaction (PCR) that results in the amplification of the entire NS5B region. Due to the sequence variation between different genotypes, specific RT and first and second round PCR primers were used. If genotype and/or subtype information was not available, more than one primer set can be used sequentially or in parallel.
The second round (nested) PCR amplification primer set contained restriction endonuclease recognition/cleavage sites that enable cloning of NS5B amplification products into an HCV replicon resistance test vector (RTV) for phenotypic drug susceptibility analysis. […] Plasmid DNA was purified from bacterial cultures, using silica column chromatography, and was quantified by spectrophotometry.
Prior to in vitro transcription of the RTV, the plasmid DNA template was linearized by restriction endonuclease digestion and column purified. […] In vitro transcribed RNA was column purified, quantified, and the integrity was evaluated using electrophoretic separation.
RTV RNA was electroporated into a Huh7 cell line, and electroporated cells were incubated in the absence and presence of serially diluted inhibitors. RNA input was monitored by measuring the amount of luciferase activity produced in the electroporated cells at 4 hours post-electroporation. Luciferase activity is expressed as relative light units (RLU). […]

Row | Structure (SMILES) | half-life (HCV infection; in the body) | anemia (HCV infection; patients) | teratogenic effects [1] | susceptibility of GT3 chimeric replicons [2] | susceptibility of GT2 chimeric replicons [3] | susceptibility among GT1 replicons [4] | susceptibility of GT4 chimeric replicons [5] | variation in susceptibility within and between genotypes [6] | IC FC range ([6]; IC fold change vs Con1 reference, range over GT1-GT4 viruses (FIG. 6, FIG. 10)) | most common adverse effects (HCV infection; administered in combination with PEG-IFN) | reported adverse effects (HCV infection; administered in combination with ribavirin) | susceptibility of GT3 viruses compared to GT2 [2] | susceptibility of GT2a compared to GT2b chimeric replicons ([3]; Example 4 (FIG. 8, FIG. 9))
1 | NC(=O)c1ncn([C@@H]2O[C@H](CO)[C@@H](O)[C@H]2O)n1 [RBV, ribavirin] | long half-life | cause of anemia | Significant teratogenic effects | particularly susceptible | statistically significant increases | similar | particularly susceptible | more variable between genotypes | 25 | – | – | – | –
2 | CC(C)OC(=O)[C@H](C)N[P@](=O)(OC[C@H]1O[C@@H](n2ccc(=O)[nH]c2=O)[C@](C)(F)[C@@H]1O)Oc1ccccc1 [SOF, sofosbuvir] | – | – | – | significantly reduced | increased susceptibility | similar | significantly reduced | more variable between genotypes | – | fatigue, headache, nausea, insomnia, and anemia | fatigue and headache | reduced susceptibility | more increased susceptibility
